Assay [1] has as its system HIF-driven expression of YFP in T-REx-293 reporter cell line. The assay can be described thus: HRE-YFP reporter assay in hypoxia. In kind it is cell-based, human. The conditions noted are these: T-Rex-293 HRE-YFP reporter. From the text: Following in vitro characterization and optimization of binding, we next assessed the effect of our cyclic peptides in mammalian cells. A cell line with a stably integrated reporter was constructed, in which the expression of yellow fluorescent protein (YFP) was placed under the control of a HRE. Thus, hypoxia would be expected to increase YFP expression (and subsequent fluorescence) in these cells, whereas treatment with a cell-permeable HIF inhibitor would be expected to reduce this fluorescence signal. A fusion cassette was designed containing the YFP gene preceded by three copies of the HRE sequence. This cassette was stably integrated into T-REx-293 cells as previously described.[12] […] The effect of this compound on the viability of T-Rex-293 was assessed with no effect observed at doses up to 75 μM (Figure S9a). […] It should be noted that the relative activity of each compound in this assay will be a combination of its cell permeability and HIF-inhibiting activity. […] We therefore continued to further characterize the cell activity of the 4-iodo-phenylalanine derivative. […]
Generation of HRE-eYFP integrated cell line
The Flp-In System (Fisher) was used to generate a constitutive expression cell line that expresses eYFP under the control of the VEGF HRE. The coding sequence of the yellow fluorescent protein (eYFP) was cloned downstream of the VEGF HRE sequence in the pcDNA5 plasmid, such that the entire cassette was under the regulation of a Tet-On gene expression system. The plasmid was transfected into a human embryonic kidney cell line (Flp-In™-293) and integrated using the manufacturer’s protocol.
Activity Assessment using Flp-In-HRE-eYFP cell line
The Flp-In-HRE-eYFP cells were plated on 24-well plates at 80% confluency and incubated overnight under normoxic conditions. The cells were then treated with different concentrations of compound and incubated for 18 hours under hypoxic conditions. After treatment, the cells were washed with PBS and lysed to extract the total cellular protein. The cell extract was cold centrifuged for 20 minutes at 14,000 RPM. An equal amount of the supernatant from each treatment was plated on a 96-well plate, and the emission of eYFP was measured using a microplate reader. […]
In general terms: In a reporter assay the amount or activity of a reporter protein is the signal.

A further assay deals with T1, HIF-1α PAS-B domain (Homo sapiens, UniProt Q16665).
T1 construct: made in house
T1 sequence (Q16665 238-349 limits assumed): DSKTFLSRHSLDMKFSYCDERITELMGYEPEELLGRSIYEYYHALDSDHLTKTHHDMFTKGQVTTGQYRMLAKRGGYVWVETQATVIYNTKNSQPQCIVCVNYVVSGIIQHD
The assay is described as follows: MST binding to the PAS-B domain of HIF-1α. To be noted: MST; for Kd: mean ± SEM, n = 2 (n = 1 for most C1 analogues, n = 3 in Figure S2), read-out: KD for HIF-1α PAS-B. On the procedure: (§1) All reagents were purchased from Fisher Scientific or Sigma Aldrich UK unless specified otherwise.
(§2) Restriction enzymes and microbiology reagents were purchased from New England Biolabs Inc., Fisher Scientific (UK) or Promega (UK) and were used as directed by the manufacturer. Primers and oligonucleotides were synthesised by Integrated DNA Technologies (UK). DNA sequencing was carried out by Eurofins MWG Operon (Germany).
(§3) Construction of the RTHS and SICLOPPS library, screening, purification of recombinant HIF proteins, and the PLA was conducted as previously described in Miranda et al., J. Am. Chem. Soc., 2013, 135(28); […]
(§4) Protein labelling with MST dye
(§5) Protein was buffer exchanged from storage buffer into labelling buffer (0.1 M NaHCO3, pH 8.5) using a PD spintrap G-25 column (GE healthcare). The protein concentration was then adjusted to 20 µM.
(§6) The commercially sourced MST dye (NanoTemper) was prepared as a 470 µM solution in DMSO, which was then further diluted to 60 µM using labelling buffer. To the protein solution was added an equal volume of dye solution, and the labelling reaction was left for 1 hour in the dark at room temperature.
(§7) The labelled protein was separated from unreacted dye by elution through a PD minitrap G-25 column (GE healthcare). Labelled protein was then aliquoted and stored at -80 °C. Extent of labelling was measured by the absorbance obtained using the UV-vis mode on a NanoDrop ND-1000 Spectrophotometer (NanoDrop Technologies, USA).
(§8) Labelled protein was thawed on ice and diluted to 50 nM in assay buffer containing 50 mM Tris pH 8.0, 150 mM NaCl, 5% (v/v) glycerol, 1 mM TCEP and 0.05% TWEEN-20. The protein solution was then centrifuged at 12000 rpm for 15 minutes at 4 °C and left on ice. Compounds were prepared and serially diluted in DMSO at 10x assay concentration, before diluting to 2x assay concentration in assay buffer.
(§9) The 2x compound solutions were then mixed 1:1 (v/v) with 50 nM labelled protein solution and left to incubate for 1 hour at room temperature. Solutions were then loaded into Monolith NT.115 Premium Capillaries (NanoTemper) and placed in the sample tray. MST experiments were carried out

Assay [2] relates to CAIX and VEGF genes in MCF-7 cells. The assay is described as follows: qPCR of hypoxia-response genes in MCF-7 cells. To be noted: hypoxic MCF-7 cells, 2 μM. The assay is classed as cell-based. As to the method:
(§10) The effect of our lead inhibitor on hypoxia-response signaling was measured by qPCR in cancer cell lines. Cells were treated with either 2 μM of an analogue of the HIF-2-specific inhibitor belzutifan, PT2399 (control), or 50 μM of cyclo-CRLII(4-iodo)F, incubated in hypoxia for […], and the levels of the hypoxia-response genes CAIX([41],[42]) and VEGF([43]) were measured by qPCR. We observed a 51% drop in CAIX transcription and a 43% drop in VEGF transcription in hypoxic MCF-7 (breast cancer) cells treated with 50 μM of cyclo-CRLII(4-iodo)F versus hypoxic MCF-7 cells treated with DMSO only (Figure 6e). […] We also observed a 49% drop in CAIX expression in hypoxic HeLa (cervical cancer) cells treated with cyclo-CRLII(4-iodo)F (Figure S9b). […] We observed a 35% drop in HIF-2-driven VEGF transcription in 786-O cells treated with 50 μM of cyclo-CRLII(4-iodo)F compared to a 50% decrease in 786-O cells treated with PT2399. […]
(§11) Realtime PCR (qPCR) Assay
(§12) Cells were plated on 6cm dishes at 80% confluency and incubated overnight under normoxic conditions. The cells were then treated with compound and incubated for 18 hours in hypoxic conditions. After treatment, the cells were washed with PBS and lysed under hypoxic conditions. The total RNA was extracted from the cells using a commercial RNA extraction kit (Fisher Scientific) following the manufacturer's instructions. A commercial reverse transcription kit (Promega) was used to generate cDNA. The MyTaq™ Mix master mix and appropriate primers targeting CAIX and VEGF were used to perform the qPCR reaction using a qPCR machine (Bio-Rad).

Assay [3] relates to CAIX and VEGF genes in Panc-1 cells. The assay can be described thus: qPCR of hypoxia-response genes in Panc-1 cells. To be noted: hypoxic Panc-1 cells, 2 μM. The assay is classed as cell-based. On the procedure: as §10, §11, §12
On the technique in general: Quantitative PCR measures a nucleic acid by following its amplification.

Another assay relates to VEGF gene in 786-O cells. The assay is described as follows: qPCR of HIF-2-driven VEGF in 786-O cells. The assay is classed as cell-based. The conditions noted are these: 2 μM. As to the method:
as §10, §11
Cells were plated on 6cm dishes at 80% confluency and incubated overnight under normoxic conditions. The cells were then treated with compound and incubated for 18 hours in hypoxic conditions. After treatment, the cells were washed with PBS and lysed under hypoxic conditions. The total RNA was extracted from the cells using a commercial RNA extraction kit (Fisher Scientific) following the manufacturer's instructions. […]

Assay [4] deals with RCC associated with VHL disease. On the set-up: method as in PMID 34453144. The conditions noted are these: phase 2 clinical trial, all partial responses; cited from earlier work.
A further assay addresses T2, HIF-2α PAS-B domain (Homo sapiens, UniProt Q99814).
T2 construct: made in house
The assay is described as follows: MST binding to the PAS-B domain of HIF-2α. The conditions noted are these: MST; for Kd: mean (n = 2) ± SEM. As to the method: as §1, §2, §3, §4, §5, §6, §7, §8, §9

Where a SMILES comes first, the peptide text is derived from it. [ ]: non-standard residue; d: D form. Phe(4-NO2) = N[C@@H](Cc1ccc([N+](=O)[O-])cc1)C(=O)O; Bpa = N[C@@H](Cc1ccc(C(=O)c2ccccc2)cc1)C(=O)O

T2 sequence (Q99814 240-350 limits assumed): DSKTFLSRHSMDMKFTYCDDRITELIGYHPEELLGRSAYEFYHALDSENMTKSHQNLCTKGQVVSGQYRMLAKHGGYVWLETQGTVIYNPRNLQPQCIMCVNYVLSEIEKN

For the compound `CC[C@H](C)[C@@H]1NC(=O)[C@H](CC(C)C)NC(=O)[C@H](CCCNC(=N)N)NC(=O)[C@H](CS)NC(=O)[C@H](Cc2ccc(C(=O)c3ccccc3)cc2)NC(=O)[C@H]([C@@H](C)CC)NC1=O` [(4-Bz)F, cyclo-CRLII(4-Bz)F] (cyclo([Bpa]CRLII)), the “relative activity among the 9 most potent cyclo-CRLIIF derivatives on YFP expression” value in assay [1] is given as “most active”.
On to `CC[C@H](C)[C@@H]1NC(=O)[C@H](CC(C)C)NC(=O)[C@H](CCCNC(=N)N)NC(=O)[C@H](CS)NC(=O)[C@H](Cc2ccc([N+](=O)[O-])cc2)NC(=O)[C@H]([C@@H](C)CC)NC1=O` [NO2, cyclo-CRLII(4-NO2)F] (cyclo(CRLII[Phe(4-NO2)])), for which the Kd at HIF-1α PAS-B domain stood at 3.3 ± 0.1 µM. Moreover, the “relative activity among the 9 most potent cyclo-CRLIIF derivatives on YFP expression” value in assay [1] was “least active”.
Turning to `N#Cc1cc(F)cc(Oc2ccc(S(=O)(=O)C(F)F)c3c2CC(F)(F)[C@H]3O)c1` [PT2399, reference compound], in assay [2], the “inhibition of hypoxia-driven expression of CAIX” value is recorded as “did not inhibit” and the “inhibition of hypoxia-driven expression of VEGF” value is “did not inhibit”. Besides, in assay [3], the “drop in CAIX transcription” value is recorded as 23% and the “drop in VEGF transcription” value was determined as 53%. For the same compound, the “decrease in HIF-2-driven VEGF transcription” value in the assay with VEGF gene in 786-O cells amounted to 50%.
For the compound `CS(=O)(=O)c1ccc(Oc2cc(F)cc(C#N)c2)c2c1[C@H](O)[C@H](F)[C@@H]2F` [belzutifan], the patients responded in assay [4] was 49%.
With `CC[C@H](C)[C@@H]1NC(=O)[C@H](CC(C)C)NC(=O)[C@H](CCCCN)NC(=O)[C@H](CS)NC(=O)[C@H](Cc2ccccc2)NC(=O)[C@H]([C@@H](C)CC)NC1=O` [cyclo-CKLIIF] (cyclo(CKLIIF)), the “Hill slope of binding curve to HIF-1α” value on HIF-1α PAS-B domain was determined as 1.33. Further, the “Hill slope of binding curve to HIF-2α” value at HIF-2α PAS-B domain came to 1.38.
On to `CC[C@H](C)[C@@H]1NC(=O)[C@H](C)NC(=O)[C@H](CCCNC(=N)N)NC(=O)[C@H](CS)NC(=O)[C@H](Cc2ccccc2)NC(=O)[C@H]([C@@H](C)CC)NC1=O` [cyclo-CRAIIF] (cyclo(CRAIIF)), for which the dissociation constant Kd at HIF-1α PAS-B domain was 52.7 ± 5.6 µM; on HIF-2α PAS-B domain it was 52.3 ± 6.6 µM.
Take `CC[C@H](C)[C@@H]1NC(=O)[C@H](C)NC(=O)[C@H](CC(C)C)NC(=O)[C@H](CCCNC(=N)N)NC(=O)[C@H](CS)NC(=O)[C@H](Cc2ccccc2)NC1=O` [cyclo-CRLAIF] (cyclo(CRLAIF)): the Kd came out at 12.8 ± 3.6 µM on HIF-1α PAS-B domain and 61 ± 9.1 µM on HIF-2α PAS-B domain.
On the same counts, the results for `CC[C@H](C)[C@@H]1NC(=O)[C@H](CC(C)C)NC(=O)[C@H](CCCNC(=N)N)NC(=O)[C@H](CS)NC(=O)[C@H](Cc2ccccc2)NC(=O)[C@H](C)NC1=O` [cyclo-CRLIAF] are over 100 µM and over 100 µM.
On the same counts, the results for `CC[C@H](C)[C@@H]1NC(=O)[C@H](CC(C)C)NC(=O)[C@H](CCCNC(=N)N)NC(=O)[C@H](CS)NC(=O)[C@H](C)NC(=O)[C@H]([C@@H](C)CC)NC1=O` [cyclo-CRLIIA] are 80.2 ± 27.3 µM and over 100 µM.
For `CC[C@H](C)[C@@H]1NC(=O)[C@H](CC(C)C)NC(=O)[C@H](CC(C)C)NC(=O)[C@H](CCCNC(=N)N)NC(=O)[C@H](CS)NC(=O)[C@H](Cc2ccccc2)NC1=O` [cyclo-CRLLIF] (cyclo(CRLLIF); ring closure inferred), the “Hill slope of binding curve to HIF-1α” value at HIF-1α PAS-B domain amounted to 1.22. In addition, the “Hill slope of binding curve to HIF-2α” value at HIF-2α PAS-B domain is 1.45.

As usually defined, the Kd is the equilibrium constant for the complex coming apart.
